One data set has as its system haploid wild-type cells. As to conditions: cited from earlier work.
Data set [1] concerns S. cerevisiae CEN.PK 113-7D strain (WT). Briefly: Toxicity of 3HP on growth of S. cerevisiae in Delft minimal medium. Type of data set: cell-based, Saccharomyces cerevisiae. As to conditions: Delft buffered medium pH 3.5, 30° C., 42 hours. On the procedure: The toxicity of 3HP on growth of S. cerevisiae CEN.PK 113-7D strain (WT) was determined by evaluating the ability of the WT strain to grow on a chemically defined minimal medium (Delft) containing varying concentrations of 3HP (0-100 g/L). The composition of Delft medium was as follows: 20.0 g/L glucose, 5.0 g/L (NH4)2SO4, 3.0 g/L KH2PO4, 0.5 g/L MgSO4.7H2O, 1.0 mL/L trace metal solution, 0.05 g/L antifoam A (10794, Sigma-Aldrich), and 1.0 mL/L vitamin solution. The trace element solution included 15 g/L EDTA, 0.45 g/L CaCl2.2H2O, 0.45 g/L ZnSO4.7H2O, 0.3 g/L FeSO4.7H2O, 100 mg/L […], 1 g/L MnCl2.2H2O, 0.3 g/L CoCl2.6H2O, 0.3 g/L CuSO4.5H2O, 0.4 g/L NaMoO4.2H2O. The pH of the trace metal solution was adjusted to 4.0 with 2 M NaOH and heat sterilized. […]
A single colony from YPD plate (10 g/L yeast extract, 20 g/L peptone, 20 g/L glucose and 20 g/L agar) was inoculated in a shake flask with 20 mL YPD broth and grown at 30° C., with shaking at 200 rpm, overnight. The absorbance (OD600) of the overnight culture was measured at 600 nm wave length using NanoPhotometer™ UV/Vis (Implen) and the culture was diluted with YPD medium to obtain inoculum with the OD600 around 0.8. […] Experiments were done in duplicates, and the specific growth rate (h^−1) was calculated at various concentrations of 3HP.

Data set [2] has as its system S. cerevisiae strains ST609, ST610, ST611. The data set is described as follows: 3HP tolerance of SFA1 allele replacement strains. Type of data set: cell-based, Saccharomyces cerevisiae. As to conditions: Delft buffered pH 3.5. Here is the method: For testing 3HP tolerance phenotype, two single colonies from each strain: ST609 (SFA1-wt), ST610 (SFA1^G827C) and ST611 (SFA1^G849A) were investigated for the ability to grow on media containing 3HP. […] The plate was incubated at 30° C. with 250 rpm agitation at 5 cm orbit cast overnight. […] Experiments were done in duplicates.

For a further data set, the system named is K. marxianus. The data set is described as follows: Effect of GSH addition on growth of yeast strains with 50 g/L 3HP. Type of data set: cell-based, Kluyveromyces marxianus.
The next data set has as its system Y. lipolytica. The data set is described as above. Type of data set: cell-based, Yarrowia lipolytica.
The test system of a further data set is C. jadinii. The data set is described as above. Format: cell-based, Cyberlindnera jadinii.
Another data set relates to S. pombe. The data set is described as above. Type of data set: cell-based, Schizosaccharomyces pombe.
The next data set concerns T. delbrueckii. The data set is described as above. Format: cell-based, Torulaspora delbrueckii.
The test system of the next data set is Rhodotorula minuta. The data set is described as above. Format: cell-based.
Data set [3] has as its system E. coli strains W3110, CROOKS, W, BL21 (DE3), MG1655. The data set is described as follows: Effect of GSH addition on growth of E. coli strains in M9 with 20 g/L 3HP. As to conditions: for effect of GSH addition on viability: M9 minimal medium with 20 g/L 3HP, pH 7.0, 37° C. Format: cell-based. Here is the method: For E. coli, the effect of GSH addition on the growth of E. coli in the presence of 20 g/L 3HP was investigated. Five platform E. coli wild-type strains e.g. W3110, CROOKS, W, BL21 (DE3) and MG1655 were selected for 3HP tolerance experiment. Single colony from each strain was inoculated into 3 mL M9 medium and incubated at 250 rpm, 37° C., overnight. Two μL of the overnight cultures were used to inoculate 150 μL M9 medium, M9 with 20 g/L 3HP, and M9 with 20 g/L 3HP and 5 mM GSH in 96-well flat bottom plate. The pH of all E. coli tested media was at pH 7.0.
The composition of M9 medium was as follows: 2.0 g/L glucose, 6.8 g/L Na HPO4, 3.0 g/L KH2PO4, 0.5 g/L NaCl, 1.0 g/L NH4Cl, 0.24 g/L MgSO4, 0.011 g/L CaCl2, 0.5 mL/L trace elements solution, and 1.0 mL/L Wolfe's Vitamin solution. The trace elements solution included 1.0 g/L FeCl3.6H2O, 0.18 g/L ZnSo4.7H2O, 0.12 g/L CuCl2.2H2O, 0.12 g/L MnSO4.H2O, and 0.18 g/L CoCl2.6H2O. The Wolfe's vitamin solution included 10 mg/L pyridoxine hydrochloride, 5.0 mg/L thiamine HCl, 5.0 mg/L riboflavin, 5.0 mg/L nicotinic acid, 5.0 mg/L calcium-(+) phantothenate, 5.0 mg/L para-amino benzoic acid, 5.0 mg/L thiotic acid, 2.0 mg/L d-biotin, 2.0 mg/L folic acid, and 0.1 mg/L vitamin B12. The trace elements and vitamin solutions were sterile-filtered and the solution was stored at 4° C. The M9 salt solution was prepared as a 10× concentrate solution and sterilized by autoclaving. 20% Glucose solution, 1M MgSO4, and 1M CaCl2 stock solutions were autoclaved separately.

For data set [4], the system named is S. cerevisiae WT, SFA1-alleles and sfa1Δ strains. On the procedure: The role of GSH in 3HP detoxification was investigated. The WT, SFA1-allles, and sfa1Δ strains were grown in the minimal medium with or without 50 g/L 3HP and supplemented with various concentration of external GSH (0-30 mM) and tested for 3HP tolerance.
For testing 3HP tolerance phenotype, the pre-cultures were prepared by inoculation of a single colony in 1 mL Delft buffered (pH 3.5) media containing 10 g/L 3HP. The cultures were incubated at 30° C. with 250 rpm overnight. Five μL of the overnight cultures were used to inoculate 100 μL Delft buffered (pH 3.5) with or without 50 g/L 3HP and various concentration of GSH (0, 1, 2.5, 5, 10, and 20 mM) in 96-well flat bottom plate. The 96-well plate was incubated at 30° C. with shaking in the Synergy™ MX microplate reader (BioTek) and the absorbance was measured at 600 nm wavelength every 15 min for 42 hours. Experiments were done in triplicates.

A further data set relates to K. lactis. As to conditions: 5 mM GSH, 50 g/L 3HP, Delft medium pH 6.0, 25° C. Here is the method:
(§1) The yeast strains were grown in 3 mL Delft medium (pH 6.0) at 250 rpm, 25° C., overnight. Three μL of the overnight cultures were used to inoculate 100 μL Delft medium (pH 6.0) with or without 50 g/[…] in 96-well flat bottom plate. The 96-well plate was incubated with shaking in the SynergyTM MX microplate reader (BioTek) at 25° C. and the absorbance was measured at 600 nm wavelength every 15 min for 72 hours. Experiments were done in triplicates, and the specific growth rate (h^-1) was calculated. The effect of GSH addition was performed by adding 5 mM GSH into the cultivation medium containing 50 g/[…]. The growth of each strain was determined as mentioned above.

The test system of a further data set is S. cerevisiae. As to conditions: 5 mM GSH, 50 g/L 3HP, Delft medium pH 6.0, 25° C. On the procedure: as §1
Another data set concerns S. kluyveri. As to conditions: 5 mM GSH, 50 g/L 3HP, Delft medium pH 6.0, 25° C. Here is the method:
as §1

The mark [5] stands for this setting: 5 mM GSH, 50 g/L 3HP, Delft medium pH 6.0.

Protocol for C. jadinii: (§2) The yeast strains were grown in 3 mL Delft medium (pH 6.0) at 250 rpm, 25° C., overnight. Three μL of the overnight cultures were used to inoculate 100 μL Delft medium (pH 6.0) with or without 50 g/[MUT] in 96-well flat bottom plate. The 96-well plate was incubated with shaking in the SynergyTM MX microplate reader (BioTek) at 25° C. and the absorbance was measured at 600 nm wavelength every 15 min for 72 hours. Experiments were done in triplicates, and the specific growth rate (h^-1) was calculated. The effect of GSH addition was performed by adding 5 mM GSH into the cultivation medium containing 50 g/[MUT]. The growth of each strain was determined as mentioned above.
Protocol for K. marxianus: as §2
Protocol for Rhodotorula minuta: as §2
Protocol for S. pombe: as §2
Protocol for T. delbrueckii: as §2
Protocol for Y. lipolytica: as §2

As to `C=O` [formaldehyde], in the data set on haploid wild-type cells, the “concentration that is cytostatic or cytotoxic” value was not below 1000 µM.

Regarding `O=C(O)CCO` [3HP, 3-hydroxypropionic acid], in data set [1], the “concentration of 3-HP at which the wild type yeast is unable to grow at all” value is listed as 75 g/L. Also, the “concentration of 3-HP producing a substantial level of inhibition of growth” value in [1] is reported as “above 10 g/L”. For the same compound, the “3HP concentration in minimum media at which the strain could not grow” value in data set [2] (ST609 (SFA1-wt allele without over expression)) was “above 40 g/L”. Besides, the “3HP concentration in minimum media at which the strain could grow” value in data set [2] (ST610 (SFA1^G827C)) and in [2] (ST611 (SFA1^G849A)) was “above 40 g/L” throughout. Further, the “3HP concentration tolerated (with decreased specific growth rate)” value in the data set on K. marxianus (Delft medium pH 6.0, 25° C.) is listed as “more than 50 g/L”; in the data set with Y. lipolytica (Delft medium pH 6.0, 25° C.), “more than 50 g/L”; in the data set on C. jadinii (Delft medium pH 6.0, 25° C.), “more than 50 g/L”; with S. pombe (Delft medium pH 6.0, 25° C.), “more than 50 g/L”; in the data set with T. delbrueckii (Delft medium pH 6.0, 25° C.) it was “more than 50 g/L”; in the data set with Rhodotorula minuta (Delft medium pH 6.0, 25° C.), “more than 50 g/L”. The “decrease in the specific growth rate compared to the cells grown in M9 medium” value in [3] (strain MG1655, M9 medium containing 20 g/L 3HP) is given as 2.2 fold.

In the case of `N[C@@H](CCC(=O)N[C@@H](CS)C(=O)NCC(=O)O)C(=O)O` [GSH, glutathione], the “GSH concentration that restored growth in the presence of 50 g/L 3HP” value in data set [4] (WT S. cerevisiae, 50 g/L 3HP, Delft buffered pH 3.5) was not below 2.5 mM. Further, the “effect of GSH on growth” value in data set [4] (all strains, minimal medium without 50 g/L 3HP) is “no significant effect”. For the same compound, the “effect of GSH addition on growth” value in [4] (sfa1Δ strain, 50 g/L 3HP) was “could not be restored”. In data set [4] (strain carrying the SFA1 alleles, 50 g/L 3HP), the “effect of GSH addition on growth rate” value was “improved the growth rate”. Also, the “effect of GSH addition on viability” value in the data set with K. lactis is listed as “restored the viability”; in the data set on S. cerevisiae, “restored the viability”; in the data set on S. kluyveri, “restored the viability”; in [3] (strain BL21, 5 mM GSH), “restored the viability”; in data set [3] (strain CROOKS, 5 mM GSH), “restored the viability”; in data set [3] (strain W3110, 5 mM GSH), “restored the viability”. In addition, the “effect of GSH addition on viability” value in data set [3] (strain W, 5 mM GSH) is on record as “restored the viability”. The “effect of GSH addition on specific growth rate” value with K. marxianus (setting [5]), in the data set on Y. lipolytica (setting [5]), in the data set with C. jadinii (setting [5]), in the data set with S. pombe (setting [5]), in the data set with T. delbrueckii (setting [5]) and in the data set with Rhodotorula minuta (setting [5]) was “improved” in each case. Further, the “effect of GSH addition on specific growth rate” value in data set [3] (strain MG1655, 5 mM GSH, medium containing 20 g/L 3HP) is reported as “improved”.
